Test results as given in patent US20070128217A1 (priority 2003, published 2007).

Assays:
[1] = tested on: antibodies in sera from SARS patients (sera 1a, 1b, 2, 6, 37, 62, London, SARS-yellow, SARS-green); assay type: binding, human; design: Binding of serum 6 to linear peptides of protein X1 of SARS-CoV Urbani / Binding of serum 37 to linear peptides of protein X1 of SARS-CoV Urbani / Binding of serum 6 to looped/cyclic peptide (PEPSCAN-ELISA) / Binding of serum 37 to looped/cyclic peptide (PEPSCAN-ELISA) / Binding of serum 37 to looped/cyclic peptides of protein X1 of SARS-CoV Urbani / Binding of serum 6 to linear peptides of protein X2 / Binding of serum 37 to linear peptides of protein X2 / Binding of serum 37 to looped/cyclic peptides of protein X2 of SARS-CoV Urbani / Binding of serum 6 to linear peptides of protein M of SARS-CoV Urbani / Binding of serum 37 to linear peptides of protein M of SARS-CoV Urbani / Binding of serum 6 to looped/cyclic peptides of protein M of SARS-CoV Urbani / Binding of serum 37 to looped/cyclic peptides of protein M of SARS-CoV Urbani / Binding of serum 6 to linear peptides of protein X3 of SARS-CoV Urbani / Binding of serum 37 to linear peptides of protein X3 of SARS-CoV Urbani / Binding of serum 37 to looped/cyclic peptides of protein X3 of SARS-CoV Urbani / Binding of serum 6 to linear peptides of protein X4 of SARS-CoV Urbani / Binding of serum 37 to linear peptides of protein X4 of SARS-CoV Urbani / Binding of serum 37 to looped/cyclic peptides of protein X4 of SARS-CoV Urbani / Binding of serum 6 to linear peptides of protein X5 of SARS-CoV Urbani / Binding of serum 37 to linear peptides of protein X5 of SARS-CoV Urbani / Binding of serum 37 to looped/cyclic peptides of protein X5 of SARS-CoV Urbani / Binding of serum 6 to linear peptides of protein N of SARS-CoV Urbani / Binding of serum 37 to linear peptides of protein N of SARS-CoV Urbani / Binding of serum 6 to linear peptide (PEPSCAN-ELISA) / Binding of serum 1a to looped/cyclic peptides of protein N of SARS-CoV Urbani / Binding of serum 1b to looped/cyclic peptides of protein N of SARS-CoV Urbani / Binding of serum 2 to looped/cyclic peptides of protein N of SARS-CoV Urbani / Binding of serum 6 to looped/cyclic peptides of protein N of SARS-CoV Urbani / Binding of serum 37 to looped/cyclic peptides of protein N of SARS-CoV Urbani / Binding of serum 62 to looped/cyclic peptides of protein N of SARS-CoV Urbani / Binding of serum London to looped/cyclic peptides of protein N of SARS-CoV Urbani / Binding of serum SARS-green to looped/cyclic peptides of protein N of SARS-CoV Urbani: unit not given here
[2] = tested on: control sera (pooled serum of ten healthy LUMC hospital workers; commercial negative donor pooled serum from the Dutch bloodbank); assay type: binding, human; design: Binding of Control serum LUMC to linear peptides / Binding of Control serum Blood-bank to linear peptides / Binding of Control serum LUMC to looped peptides / Binding of Control Serum Blood-Bank to Looped peptides / Binding of Control serum LUMC to linear peptides of the protein M of SARS-CoV Urbani / Binding of Control serum Blood-bank to linear peptides of the protein M of SARS-CoV Urbani / Binding of Control serum LUMC to looped peptides of the protein M of SARS-CoV Urbani / Binding of Control Serum Blood-Bank to Looped peptides of the protein M of SARS-CoV Urbani: unit not given here
[3] = tested on: rabbit serum obtained by immunizing a rabbit with the SARS-CoV strain Frankfurt 1; assay type: binding; design: Binding of a rabbit serum to linear peptides / Binding of a rabbit serum to looped peptides / Rabbit serum linear peptides / Rabbit serum looped peptides / Binding of a rabbit serum to linear peptides of protein N of SARS-CoV Urbani (Rabbit serum linear peptides) / Binding of a rabbit serum to looped/cyclic peptides of protein N of SARS-CoV Urbani (Rabbit serum looped peptides): unit not given here

Sequence	Binding of serum 1a to linear peptides of protein M of SARS-CoV Urbani [1]	Binding of serum 1a to looped/cyclic peptides of protein M of SARS-CoV Urbani [1]	Binding of serum 1b to linear peptides of protein M of SARS-CoV Urbani [1]	Binding of serum 1b to looped/cyclic peptides of protein M of SARS-CoV Urbani [1]	Binding of serum 2 to linear peptides of protein M of SARS-CoV Urbani [1]	Binding of serum 2 to looped/cyclic peptides of protein M of SARS-CoV Urbani [1]	Binding of serum 6 to linear peptides of protein M of SARS-CoV Urbani [1]	Binding of serum 6 to looped/cyclic peptides of protein M of SARS-CoV Urbani [1]	Binding of serum 37 to linear peptides of protein M of SARS-CoV Urbani [1]	Binding of serum 37 to looped/cyclic peptides of protein M of SARS-CoV Urbani [1]	Binding of serum 62 to linear peptides of protein M of SARS-CoV Urbani [1]	Binding of serum 62 to looped/cyclic peptides of protein M of SARS-CoV Urbani [1]	Binding of serum London to linear peptides of protein M of SARS-CoV Urbani [1]	Binding of serum London to looped/cyclic peptides of protein M of SARS-CoV Urbani [1]	Binding of serum SARS-green to linear peptides of protein M of SARS-CoV Urbani [1]	Binding of serum SARS-green to looped/cyclic peptides of protein M of SARS-CoV Urbani [1]	Binding of serum SARS-yellow to linear peptides of protein M of SARS-CoV Urbani [1]	Binding of serum SARS-yellow to looped/cyclic peptides of protein M of SARS-CoV Urbani [1]	Binding of Control Serum Blood-Bank to Looped peptides of the protein M of SARS-CoV Urbani [2]	Binding of Control serum Blood-bank to linear peptides of the protein M of SARS-CoV Urbani [2]	other results
GFAAYNRYRIGNYKL	0.6	0.7	0.4	0.2	0.4	0.6	0.8	0.7	0.5	0.6	0.5	0.5	0.4	0.2	0.3	0.2	0.1	0.5	0.5	0.7	Binding of Control serum LUMC to linear peptides of the protein M of SARS-CoV Urbani [2]: 0.8; Binding of Control serum LUMC to looped peptides of the protein M of SARS-CoV Urbani [2]: 0.6; Rabbit serum linear peptides [3]: 0.2; Rabbit serum looped peptides [3]: 0.5
GFLFLAWIMLLQFAY	0.7	0.6	0.5	0.6	0.5	0.5	0.3	0.6	0.7	0.6	0.7	0.6	0.3	0.2	0.2	0.3	0.0	0.4	0.6	0.7	Binding of Control serum LUMC to linear peptides of the protein M of SARS-CoV Urbani [2]: 0.3; Binding of Control serum LUMC to looped peptides of the protein M of SARS-CoV Urbani [2]: 0.7; Rabbit serum linear peptides [3]: 0.3; Rabbit serum looped peptides [3]: 0.4
